Results from PMC6216040, “Repurposing of an old drug: In vitro and in vivo efficacies of buparvaquone against Echinococcus multilocularis” (International Journal for Parasitology: Drugs and Drug …, 2018).

System: E. multilocularis metacestodes
Assay: PGI-assay: drug-induced damage on in vitro cultured metacestodes (Pathogen Box screening cascade and EC50)
Format: cell-based, Echinococcus multilocularis
Settings: for PGI release, % of the Tx-100 control, 5d / PGI release, % of the Tx-100 control, 12d: 10 µM, singlets

| Compound | PGI release, % of the Tx-100 control, 5d (5 days of incubation) | PGI release, % of the Tx-100 control, 12d (12 days of incubation) | PGI release, % of Tx-100 control, average, 5d (confirmatory screening at 10 µM in triplicates, 5 days of incubation, values as % of Tx-100 control) | PGI release, % of Tx-100 control, average, 12d (confirmatory screening at 10 µM in triplicates, 12 days of incubation, values as % of Tx-100 control) |
| --- | --- | --- | --- | --- |
| CN1CCN(c2nccc3nc(-c4ccc(F)c(F)c4)[nH]c23)CC1 [MMV676260] | 0.28% | 0.56% | – | – |
| C[C@H](C(N)=O)N1CCCC[C@H]1c1ccc(OCc2cccc(F)c2)cc1 [MMV676269] | 1.52% | 1.07% | – | – |
| C[C@H](C(N)=O)N1CCCC[C@@H]1c1ccc(OCc2cccc(F)c2)cc1 [MMV676270] | -0.98% | -0.91% | – | – |
| Cc1c[nH]c(CCNC(=O)c2cc(-c3ccc(Cl)cc3)cs2)n1 [MMV676350] | -0.41% | 1.56% | – | – |
| Nc1ncc(Br)cc1-c1nc2cc(Cl)cnc2[nH]1 [MMV676358] | 0.16% | -0.55% | – | – |
| Brc1c(-c2ccc3c(c2)OCO3)nc2ncccn12 [MMV676377] | 0.59% | -0.19% | – | – |
| COc1cccc(OCC(=O)c2ccc(Br)cc2)c1 [MMV676379] | -3.68% | -3.36% | – | – |
| CC(=O)Nc1ccc(NC(=O)c2cc(-c3cc(Cl)ccc3O)n[nH]2)cc1 [MMV676380] | -0.62% | -0.39% | – | – |
| Cn1ncc2c(N3CCOCC3)nc(NCCc3c[nH]c4ccccc34)nc21 [MMV676382] | 0.80% | -0.14% | – | – |
| CCC(Sc1nc2ccccc2o1)C(=O)Nc1nccs1 (stereo not shown) [MMV676383] | 0.61% | 4.85% | – | – |
| N#Cc1nc(-c2ccccc2F)oc1NCCc1ccccc1 [MMV676384] | 0.0223% | -0.18% | – | – |
| Cc1cccc(Cn2ccc(NC(=O)c3ccc4c(c3)OCO4)n2)c1 [MMV676386] | 0.18% | -0.91% | – | – |
| COc1cccc(-n2nnnc2S(=O)(=O)Cc2ccccc2)c1 [MMV676388] | 12.00% | 14.67% | – | – |
| O=C(c1n[nH]c2c1CCCC2)N1CCN(Cc2ccc3c(c2)OCO3)CC1 [MMV676389] | 1.07% | 3.62% | – | – |
| O=C(Nc1cccnc1)c1c(O)c2cccc3c2n(c1=O)CC3 [MMV676395] | -2.29% | 0.06% | – | – |
| CCS(=O)(=O)N(Cc1ccco1)Cc1cc2ccc(C)cc2[nH]c1=O [MMV676398] | -0.33% | 4.91% | – | – |
| c1coc(CNc2nc(N3CCCCC3)nc3ccccc23)c1 [MMV676401] | -3.33% | 41.40% | -0.0357% | -0.23% |
| CC(C)n1ncc2c(C(=O)NCC(c3cccs3)N3CCOCC3)cc(-c3ccccc3)nc21 (stereo not shown) [MMV676406] | 0.95% | 2.38% | – | – |
| O=C(COc1cccc(F)c1)Nc1nc(-c2ccccn2)cs1 [MMV676409] | -3.57% | -0.58% | – | – |
| CC(Oc1ccccc1)C(=O)Nc1nc(-c2ccccn2)cs1 (stereo not shown) [MMV676411] | 0.12% | 0.11% | – | – |
| N#Cc1nc(-c2ccccc2)oc1S(=O)(=O)c1ccc(Cl)cc1 [MMV676412] | 0.33% | 0.62% | – | – |
| Cc1ccc(NC(=O)CC2COc3ccccc3O2)cc1Cl (stereo not shown) [MMV676431] | -2.82% | 0.24% | – | – |
| Cc1ccc2nc(Cl)c(CNCc3cccs3)cc2c1 [MMV676439] | -0.82% | 3.19% | – | – |
| CC(C)c1ncc(-c2ccncc2)c(C2CCC(CNC(=O)c3cccnc3)CC2)n1 (stereo not shown) [MMV676442] | -0.58% | 4.83% | – | – |
| O=C(NC1CCCCC1)N1CCN(Cc2ccc3c(c2)OCO3)CC1 [MMV676444] | -3.25% | 1.66% | – | – |
| CCCn1c(CNc2ccccc2O)nc2ccccc21 [MMV676445] | -1.26% | 2.30% | – | – |
| CCc1nc2ccccc2n1CC(O)COc1cc(C)ccc1Cl (stereo not shown) [MMV676449] | 0.81% | 2.81% | – | – |
| CCOC(=O)c1cc(-c2csc(Nc3c(C)cc(C)cc3C)n2)on1 [MMV676461] | 0.19% | -0.25% | – | – |
